Target: T1, cathepsin C (Mus musculus, UniProt P97821)
T1 construct: gene Ctsc
Assay: colorimetric enzyme inhibition with H-Gly-Phe-β-naphthylamide; Lineweaver-Burk kinetics and secondary plots (IC50 […]; Kis […])
Type: biochemical

T1 sequence (P97821 25-134): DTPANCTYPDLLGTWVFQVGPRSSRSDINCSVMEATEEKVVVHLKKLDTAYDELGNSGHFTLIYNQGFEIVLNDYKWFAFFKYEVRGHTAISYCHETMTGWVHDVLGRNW
T1 sequence (P97821 231-462): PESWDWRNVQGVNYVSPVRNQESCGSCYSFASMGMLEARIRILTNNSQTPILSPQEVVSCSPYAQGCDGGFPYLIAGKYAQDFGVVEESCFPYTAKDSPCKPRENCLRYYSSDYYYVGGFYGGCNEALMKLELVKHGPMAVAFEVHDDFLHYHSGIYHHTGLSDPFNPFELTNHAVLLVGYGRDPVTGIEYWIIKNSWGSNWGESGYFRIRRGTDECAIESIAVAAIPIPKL

Ki: 71.6 ± 10.2 µM
Compound: CC(=O)NCCc1ccc2c(c1)O[C@H](c1ccc(O)c(O)c1)[C@@H](NC(C)=O)O2 [compound 1, (2R,3S)-2-(3′,4′-dihydroxyphenyl)-3-acetylamino-7-(N-acetyl-2″-aminoethyl)-1,4-benzodioxane]

Reference: paper PMC8908036, “N-Acetyldopamine dimers from Oxya chinensis sinuosa attenuates lipopolysaccharides induced inflammation and inhibits cathepsin C activity” (Computational and Structural Biotechnology Journal, 2022)
